From patent US20150051387A1, “WATER SOLUBLE PLATINUM COMPLEXES FOR TUMOR TREATMENT AND PROCESS OF PREPARING SAME” (GUDUI BIOPHARMA TECHNOLOGY INC., priority 2011, published 2015)

Experiments:
L1210 tumor cells = assay: Antitumor efficacy in L1210 leukemia-bearing CDF1 mice (Experiment-2); assay type: in vivo; details: for Weight Changes: first day to seventh day
Procedure: In the following test, antitumor efficacy studies were performed using 8-9 weeks old female CDF1 mice, the average weight of the animal is 20-25 grams. L1210 tumor cells (about 10^5 cells per mouse) were inoculated intraperitoneally. The water-soluble platinum complexes were used to treat the tumor-bearing animals and the efficacy was compared compared with the clinical platinum antitumor drugs. […] Drugs were administered intraperitoneally on day 1 and day 4 after tumor cell transplantation. The number of experimental animals in each group was 6.
The experimental animals were purchased from Vital River Laboratory Animal Technology Co. Ltd., Tumor cells L1210-leukemia cells were purchased from Shanghai An Yan Commercial Trade Co. Ltd.
The increase in life span (ILS) is calculated as follows:
Wherein, St=the weighted median survival time of treated animals; Su=the weighted median survival time of untreated animals

[1] = Solubility in water at room temperature (Experiment-1)
[2] = 1.25 mg/Kg i.p. day 1 and day 4

cis-[trans-(1R,2R)-diamino cyclohexane] Pt (II) (1-O-D-glucoside-propane-3-chloro-3,3-dicarboxylate) [Example 1]
ILS (L1210 tumor cells; 50 mg/Kg i.p. day 1 and day 4): >425% | Survival Animals on Day 42 (L1210 tumor cells; 50 mg/Kg i.p. day 1 and day 4): 6/6 | Weight Changes (L1210 tumor cells; 50 mg/Kg i.p. day 1 and day 4): +1.1 g | ILS (L1210 tumor cells; 100 mg/Kg i.p. day 1 and day 4): >425% | Survival Animals on Day 42 (L1210 tumor cells; 100 mg/Kg i.p. day 1 and day 4): 6/6 | Weight Changes (L1210 tumor cells; 100 mg/Kg i.p. day 1 and day 4): +0 g | ILS (L1210 tumor cells; 200 mg/Kg i.p. day 1 and day 4): >425% | Survival Animals on Day 42 (L1210 tumor cells; 200 mg/Kg i.p. day 1 and day 4): 6/6 | Weight Changes (L1210 tumor cells; 200 mg/Kg i.p. day 1 and day 4): -0.4 g

N.N.O=C([O-])C1(C(=O)[O-])CCC1.[Pt+2] [Carboplatin, carboplatin]
Survival Animals on Day 42 (L1210 tumor cells; 24 mg/Kg i.p. day 1 and day 4): 0/6 | Weight Changes (L1210 tumor cells; 24 mg/Kg i.p. day 1 and day 4): +0.6 g | Survival Animals on Day 42 (L1210 tumor cells; 40 mg/Kg i.p. day 1 and day 4): 0/6 | Weight Changes (L1210 tumor cells; 40 mg/Kg i.p. day 1 and day 4): -0.4 g | Survival Animals on Day 42 (L1210 tumor cells; 80 mg/Kg i.p. day 1 and day 4): 1/6 | Weight Changes (L1210 tumor cells; 80 mg/Kg i.p. day 1 and day 4): -1.2 g | solubility [1]: 16.6 mg/1 mL H2O

N.N.[Cl][Pt][Cl] [Cisplatin, cisplatin]
Survival Animals on Day 42 (L1210 tumor cells; [2]): 0/6 | Weight Changes (L1210 tumor cells; [2]): +1.1 g | Survival Animals on Day 42 (L1210 tumor cells; 2.5 mg/Kg i.p. day 1 and day 4): 1/6 | Weight Changes (L1210 tumor cells; 2.5 mg/Kg i.p. day 1 and day 4): -0.6 g | Survival Animals on Day 42 (L1210 tumor cells; 5.0 mg/Kg i.p. day 1 and day 4): 3/6 | Weight Changes (L1210 tumor cells; 5.0 mg/Kg i.p. day 1 and day 4): -2.2 g
